Data reported in patent US5696155A, “Dibenz[b,e]oxepin derivatives and pharmaceutical agents which contain them” (Boehringer Mannheim BmbH, priority 1993, dated 1997).

Biological target: T1, human recombinant type II PLA2 (=synovial PLA2) (Homo sapiens, UniProt P14555)
T1 sequence (P14555 21-144): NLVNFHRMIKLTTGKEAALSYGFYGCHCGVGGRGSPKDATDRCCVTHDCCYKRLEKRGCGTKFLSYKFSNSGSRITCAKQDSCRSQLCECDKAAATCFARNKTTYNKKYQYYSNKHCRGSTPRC
Assay: Inhibition of PLA2 activity (sPLA2 enzyme activity, in vitro)
Assay type: biochemical
Settings: means of 3 experiments (duplicate determinations); for inhibition at 0.1 µg/mL: concentration 0.1 μg/ml; for inhibition at 1 µg/mL: concentration 1 μg/ml; for inhibition at 10 µg/mL: concentration 10 μg/ml
Source text: Inhibition of PLA2 activity
The human recombinant type II PLA2 (=synovial PLA2) as a typical representative of a PLA2 was used for the test.
This documents the superiority of the new sPLA2 inhibitors compared to a cyclooxygenase inhibitor.

Structure (SMILES)	inhibition at 0.1 µg/mL [%]	inhibition at 1 µg/mL [%]	inhibition at 10 µg/mL [%]
CCOC(=O)c1cc(=O)c2c3c(ccc2o1)C(=O)c1ccc(O)cc1CO3 [Ex.2a), 7,12-dihydro-10-hydroxy-1H-4,13-dioxabenzo[4,5]cyclohepta[1,2-a]-naphthalene-1,7-dione-3-carboxylic acid-ethyl ester]	28	52	61
CCOC(=O)c1cc(=O)c2cc3c(cc2o1)OCc1cc(O)ccc1C3=O [Ex.2c), 7,13-dihydro-2-hydroxy-5H-10,12-dioxabenzo[4,5]cyclohepta[1,2-b]-naphthalen-5,7-dione-9-carboxylic acid ethyl ester]	12	73	78
CCCCCCCCOc1ccc2c(c1)COc1c(cc3c(=O)cc(C(=O)OCC)oc3c1CCC)C2=O [Ex.4a), 7,13-dihydro-2-octyloxy-11-propyl-5H-10,12-dioxabenzo-[4,5]cyclo-hepta[1,2-b]naphthalen-5,7-dione-9-carboxylic acid ethyl ester]	16	17	49
COc1ccc2c(c1)c(CC(=O)O)c(C)n2C(=O)c1ccc(Cl)cc1 [Indomethacin, reference compound]		0	
